The values below come from ChEMBL document CHEMBL3627674, “Discovery of wrightiadione as a novel template for the TrkA kinase inhibitors” (Bioorg Med Chem Lett, 2015).

Test [1] has as its target Tyrosine-protein kinase ABL1 (Homo sapiens) (UniProt P00519). In words: Inhibition of ABL1 phosphorylation (unknown origin) assessed as remaining activity at 10 uM by high-throughput assay relative to control.
The target of test [2] is Atypical kinase COQ8A, mitochondrial (Homo sapiens) (UniProt Q8NI60). In words: Inhibition of ADCK3 (unknown origin) assessed as remaining activity at 10 uM by high-throughput assay relative to control.
The target of test [3] is Bone morphogenetic protein receptor type-2 (Homo sapiens) (UniProt Q13873). The experiment in a line: Inhibition of BMPR2 (unknown origin) assessed as remaining activity at 10 uM by high-throughput assay relative to control.
In test [4] the target is Cyclin-dependent kinase 9 (Homo sapiens) (UniProt P50750). In words: Inhibition of CDK9 (unknown origin) assessed as remaining activity at 10 uM by high-throughput assay relative to control.
Chain of Cyclin-dependent kinase 9 (Homo sapiens) (P50750 whole entry): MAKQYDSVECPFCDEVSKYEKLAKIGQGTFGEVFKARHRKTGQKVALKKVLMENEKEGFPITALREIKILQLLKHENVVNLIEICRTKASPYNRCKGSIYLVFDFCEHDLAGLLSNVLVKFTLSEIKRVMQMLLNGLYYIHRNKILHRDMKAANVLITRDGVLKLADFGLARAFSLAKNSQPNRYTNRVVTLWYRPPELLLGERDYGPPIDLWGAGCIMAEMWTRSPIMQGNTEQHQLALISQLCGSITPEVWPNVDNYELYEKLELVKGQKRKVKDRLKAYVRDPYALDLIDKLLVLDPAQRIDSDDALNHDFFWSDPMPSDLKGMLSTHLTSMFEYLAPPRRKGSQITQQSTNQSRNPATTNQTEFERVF
Test [5] deals with Serine/threonine-protein kinase Chk1 (Homo sapiens) (UniProt O14757). In words: Inhibition of CHEK1 (unknown origin) assessed as remaining activity at 10 uM by high-throughput assay relative to control.
The target in test [6] is Serine/threonine-protein kinase DCLK1 (Homo sapiens) (UniProt O15075). The experiment in a line: Inhibition of DCAMKL1 (unknown origin) assessed as remaining activity at 10 uM by high-throughput assay relative to control.
Test [7] concerns the target Receptor tyrosine-protein kinase erbB-2 (Homo sapiens) (UniProt P04626). In words: Inhibition of ERBB2 (unknown origin) assessed as remaining activity at 10 uM by high-throughput assay relative to control.
Test [8] concerns the target Receptor tyrosine-protein kinase erbB-4 (Homo sapiens) (UniProt Q15303). In words: Inhibition of ERBB4 (unknown origin) assessed as remaining activity at 10 uM by high-throughput assay relative to control.
For test [9], the target named is Mitogen-activated protein kinase 3 (Homo sapiens) (UniProt P27361). The experiment in a line: Inhibition of ERK1 (unknown origin) assessed as remaining activity at 10 uM by high-throughput assay relative to control.
Chain of Mitogen-activated protein kinase 3 (Homo sapiens) (P27361 whole entry): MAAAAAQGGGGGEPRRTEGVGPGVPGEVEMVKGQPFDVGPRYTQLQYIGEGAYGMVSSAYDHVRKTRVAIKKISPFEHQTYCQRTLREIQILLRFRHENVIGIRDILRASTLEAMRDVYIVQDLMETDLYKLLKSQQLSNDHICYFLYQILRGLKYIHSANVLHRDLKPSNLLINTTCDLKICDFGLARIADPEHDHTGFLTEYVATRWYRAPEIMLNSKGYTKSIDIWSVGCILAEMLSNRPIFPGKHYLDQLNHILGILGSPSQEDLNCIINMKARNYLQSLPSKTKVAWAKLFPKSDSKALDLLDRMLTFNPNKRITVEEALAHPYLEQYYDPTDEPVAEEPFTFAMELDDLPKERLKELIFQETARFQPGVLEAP
The target of test [10] is Focal adhesion kinase 1 (Homo sapiens) (UniProt Q05397). In words: Inhibition of FAK (unknown origin) assessed as remaining activity at 10 uM by high-throughput assay relative to control.
Test [11] concerns the target Receptor-type tyrosine-protein kinase FLT3 (Homo sapiens) (UniProt P36888). In words: Inhibition of FLT3 (unknown origin) assessed as remaining activity at 10 uM by high-throughput assay relative to control.
Test [12] has as its target Glycogen synthase kinase-3 beta (Homo sapiens) (UniProt P49841). In words: Inhibition of GSK3B (unknown origin) assessed as remaining activity at 10 uM by high-throughput assay relative to control.
For test [13], the target named is Mast/stem cell growth factor receptor Kit (Homo sapiens) (UniProt P10721). The experiment in a line: Inhibition of KIT (unknown origin) assessed as remaining activity at 10 uM by high-throughput assay relative to control.
The target in test [14] is Hepatocyte growth factor receptor (Homo sapiens) (UniProt P08581). The experiment in a line: Inhibition of MET (unknown origin) assessed as remaining activity at 10 uM by high-throughput assay relative to control.
Chain of Hepatocyte growth factor receptor (Homo sapiens) (P08581 whole entry): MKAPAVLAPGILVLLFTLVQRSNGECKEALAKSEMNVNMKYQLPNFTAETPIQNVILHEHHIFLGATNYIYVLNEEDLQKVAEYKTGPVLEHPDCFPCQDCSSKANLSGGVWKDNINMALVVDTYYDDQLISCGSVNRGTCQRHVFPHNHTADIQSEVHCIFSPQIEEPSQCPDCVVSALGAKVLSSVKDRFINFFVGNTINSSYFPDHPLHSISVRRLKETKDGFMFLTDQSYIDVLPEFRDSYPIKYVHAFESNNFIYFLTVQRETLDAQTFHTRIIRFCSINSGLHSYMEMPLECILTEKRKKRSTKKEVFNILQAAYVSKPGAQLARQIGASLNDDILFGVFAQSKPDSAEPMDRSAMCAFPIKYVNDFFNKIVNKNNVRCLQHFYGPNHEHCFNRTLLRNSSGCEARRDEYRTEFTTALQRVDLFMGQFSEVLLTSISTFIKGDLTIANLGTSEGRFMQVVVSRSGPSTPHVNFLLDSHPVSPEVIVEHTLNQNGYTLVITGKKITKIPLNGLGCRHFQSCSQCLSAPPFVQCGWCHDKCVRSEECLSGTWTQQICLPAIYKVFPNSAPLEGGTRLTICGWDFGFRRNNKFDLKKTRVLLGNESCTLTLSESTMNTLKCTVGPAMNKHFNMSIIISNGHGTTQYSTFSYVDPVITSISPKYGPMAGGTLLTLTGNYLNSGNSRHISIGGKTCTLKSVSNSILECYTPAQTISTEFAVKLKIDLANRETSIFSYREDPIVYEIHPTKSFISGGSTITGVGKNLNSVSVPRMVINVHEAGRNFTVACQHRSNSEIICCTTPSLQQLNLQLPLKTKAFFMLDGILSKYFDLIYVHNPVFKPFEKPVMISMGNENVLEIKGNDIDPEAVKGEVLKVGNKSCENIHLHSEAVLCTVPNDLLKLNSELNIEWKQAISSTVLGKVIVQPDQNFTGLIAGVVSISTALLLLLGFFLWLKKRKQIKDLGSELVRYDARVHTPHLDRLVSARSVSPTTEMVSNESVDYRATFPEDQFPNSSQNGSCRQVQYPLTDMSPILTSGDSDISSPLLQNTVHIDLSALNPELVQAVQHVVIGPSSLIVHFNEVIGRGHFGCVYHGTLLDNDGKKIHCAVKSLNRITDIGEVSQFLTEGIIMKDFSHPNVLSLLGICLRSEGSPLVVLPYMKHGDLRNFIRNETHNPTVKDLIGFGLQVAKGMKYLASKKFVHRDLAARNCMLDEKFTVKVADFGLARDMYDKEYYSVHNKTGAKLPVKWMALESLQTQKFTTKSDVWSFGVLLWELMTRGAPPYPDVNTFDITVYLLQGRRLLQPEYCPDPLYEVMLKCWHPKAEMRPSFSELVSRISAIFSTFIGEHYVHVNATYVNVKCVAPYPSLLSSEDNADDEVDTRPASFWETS
The target of test [15] is Mitogen-activated protein kinase kinase kinase 9 (Homo sapiens) (UniProt P80192). In words: Inhibition of MLK1 (unknown origin) assessed as remaining activity at 10 uM by high-throughput assay relative to control.
Test [16] addresses Serine/threonine-protein kinase PAK 2 (Homo sapiens) (UniProt Q13177). In words: Inhibition of PAK2 (unknown origin) assessed as remaining activity at 10 uM by high-throughput assay relative to control.
Test [17] has as its target Cyclin-dependent kinase 16 (Homo sapiens) (UniProt Q00536). In words: Inhibition of PCTK1 (unknown origin) assessed as remaining activity at 10 uM by high-throughput assay relative to control.
Test [18] addresses Serine/threonine-protein kinase pim-1 (Homo sapiens) (UniProt P11309). The experiment in a line: Inhibition of PIM1 (unknown origin) assessed as remaining activity at 10 uM by high-throughput assay relative to control.
In test [19] the target is Serine/threonine-protein kinase pim-2 (Homo sapiens) (UniProt Q9P1W9). The experiment in a line: Inhibition of PIM2 (unknown origin) assessed as remaining activity at 10 uM by high-throughput assay relative to control.
Chain of Serine/threonine-protein kinase pim-2 (Homo sapiens) (Q9P1W9 whole entry, looked up): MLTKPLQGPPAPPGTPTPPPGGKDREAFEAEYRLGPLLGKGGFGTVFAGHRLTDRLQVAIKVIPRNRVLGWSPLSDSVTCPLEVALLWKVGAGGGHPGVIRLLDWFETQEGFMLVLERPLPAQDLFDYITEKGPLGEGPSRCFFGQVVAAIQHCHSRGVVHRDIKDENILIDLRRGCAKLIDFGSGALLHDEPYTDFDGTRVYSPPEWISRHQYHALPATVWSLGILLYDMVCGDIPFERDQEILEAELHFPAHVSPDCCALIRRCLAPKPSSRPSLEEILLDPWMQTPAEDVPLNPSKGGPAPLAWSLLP
The target of test [20] is cAMP-dependent protein kinase catalytic subunit alpha (Homo sapiens) (UniProt P17612). The experiment in a line: Inhibition of PKAC-alpha (unknown origin) assessed as remaining activity at 10 uM by high-throughput assay relative to control.
Test [21] deals with Serine/threonine-protein kinase RIO2 (Homo sapiens) (UniProt Q9BVS4). In words: Inhibition of RIOK2 (unknown origin) assessed as remaining activity at 10 uM by high-throughput assay relative to control.
The target in test [22] is Proto-oncogene tyrosine-protein kinase Src (Homo sapiens) (UniProt P12931). In words: Inhibition of SRC (unknown origin) assessed as remaining activity at 10 uM by high-throughput assay relative to control.
Chain of Proto-oncogene tyrosine-protein kinase Src (Homo sapiens) (P12931 2-536 limits assumed): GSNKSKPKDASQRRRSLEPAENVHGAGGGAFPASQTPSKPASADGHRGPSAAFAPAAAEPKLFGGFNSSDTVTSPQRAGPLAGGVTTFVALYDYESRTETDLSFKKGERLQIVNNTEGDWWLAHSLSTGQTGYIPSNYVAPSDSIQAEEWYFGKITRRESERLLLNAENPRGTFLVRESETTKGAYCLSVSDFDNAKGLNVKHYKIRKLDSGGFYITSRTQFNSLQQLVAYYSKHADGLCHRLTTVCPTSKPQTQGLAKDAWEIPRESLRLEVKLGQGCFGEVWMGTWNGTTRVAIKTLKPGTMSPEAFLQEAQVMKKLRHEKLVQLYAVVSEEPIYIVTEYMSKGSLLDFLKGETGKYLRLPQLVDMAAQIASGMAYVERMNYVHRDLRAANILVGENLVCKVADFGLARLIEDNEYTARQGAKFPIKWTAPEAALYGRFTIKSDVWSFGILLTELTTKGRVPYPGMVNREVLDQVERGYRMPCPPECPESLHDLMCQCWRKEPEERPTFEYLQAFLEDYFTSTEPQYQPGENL
Test [23] concerns the target SRSF protein kinase 3 (Homo sapiens) (UniProt Q9UPE1). In words: Inhibition of SRPK3 (unknown origin) assessed as remaining activity at 10 uM by high-throughput assay relative to control.
The target in test [24] is Non-receptor tyrosine-protein kinase TYK2 (Homo sapiens) (UniProt P29597). The experiment in a line: Inhibition of TYK2 JH1 catalytic domain (unknown origin) assessed as remaining activity at 10 uM by high-throughput assay relative to control.

Chain of Receptor tyrosine-protein kinase erbB-2 (Homo sapiens) (P04626 whole entry): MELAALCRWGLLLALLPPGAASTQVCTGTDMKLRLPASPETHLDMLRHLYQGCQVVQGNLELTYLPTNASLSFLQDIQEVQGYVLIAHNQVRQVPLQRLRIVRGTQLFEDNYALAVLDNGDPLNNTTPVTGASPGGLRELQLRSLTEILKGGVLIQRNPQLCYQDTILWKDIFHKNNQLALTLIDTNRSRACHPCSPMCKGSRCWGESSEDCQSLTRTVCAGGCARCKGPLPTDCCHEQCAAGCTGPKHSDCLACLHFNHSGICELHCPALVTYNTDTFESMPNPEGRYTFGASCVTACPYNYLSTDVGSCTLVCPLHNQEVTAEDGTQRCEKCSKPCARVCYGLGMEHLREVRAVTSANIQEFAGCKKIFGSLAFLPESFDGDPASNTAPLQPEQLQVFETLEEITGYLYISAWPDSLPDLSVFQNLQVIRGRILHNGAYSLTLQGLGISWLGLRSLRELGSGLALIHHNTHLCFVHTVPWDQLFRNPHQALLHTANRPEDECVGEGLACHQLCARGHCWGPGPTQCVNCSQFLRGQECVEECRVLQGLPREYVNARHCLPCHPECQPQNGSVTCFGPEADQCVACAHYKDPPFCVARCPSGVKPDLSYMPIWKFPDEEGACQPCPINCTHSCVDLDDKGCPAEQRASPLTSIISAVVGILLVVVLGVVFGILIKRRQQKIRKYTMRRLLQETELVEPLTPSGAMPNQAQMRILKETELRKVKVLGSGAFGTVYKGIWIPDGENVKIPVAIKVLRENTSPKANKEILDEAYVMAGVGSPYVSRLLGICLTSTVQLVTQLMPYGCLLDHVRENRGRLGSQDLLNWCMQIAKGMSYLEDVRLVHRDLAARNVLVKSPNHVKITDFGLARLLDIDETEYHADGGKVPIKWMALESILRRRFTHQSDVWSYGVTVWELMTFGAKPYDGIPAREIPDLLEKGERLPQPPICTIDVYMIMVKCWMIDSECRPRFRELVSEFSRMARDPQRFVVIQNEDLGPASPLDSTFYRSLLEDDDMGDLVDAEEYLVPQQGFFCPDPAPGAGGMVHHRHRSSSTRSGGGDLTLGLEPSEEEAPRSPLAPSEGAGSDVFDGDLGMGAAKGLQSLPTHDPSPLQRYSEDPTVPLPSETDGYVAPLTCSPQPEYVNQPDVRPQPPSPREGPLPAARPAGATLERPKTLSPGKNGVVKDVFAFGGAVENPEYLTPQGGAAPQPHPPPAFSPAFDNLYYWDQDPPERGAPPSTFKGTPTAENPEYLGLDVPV
Chain of Serine/threonine-protein kinase pim-1 (Homo sapiens) (P11309 whole entry, looked up): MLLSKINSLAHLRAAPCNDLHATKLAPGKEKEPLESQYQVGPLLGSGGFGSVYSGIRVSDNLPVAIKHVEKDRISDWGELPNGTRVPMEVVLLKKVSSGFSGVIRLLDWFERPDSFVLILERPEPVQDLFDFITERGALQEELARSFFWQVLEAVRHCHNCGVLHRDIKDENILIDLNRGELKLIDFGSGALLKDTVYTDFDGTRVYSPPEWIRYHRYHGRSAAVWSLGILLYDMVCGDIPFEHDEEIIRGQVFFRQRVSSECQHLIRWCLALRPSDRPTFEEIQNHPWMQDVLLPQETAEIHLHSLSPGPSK
Chain of Glycogen synthase kinase-3 beta (Homo sapiens) (P49841 whole entry, looked up): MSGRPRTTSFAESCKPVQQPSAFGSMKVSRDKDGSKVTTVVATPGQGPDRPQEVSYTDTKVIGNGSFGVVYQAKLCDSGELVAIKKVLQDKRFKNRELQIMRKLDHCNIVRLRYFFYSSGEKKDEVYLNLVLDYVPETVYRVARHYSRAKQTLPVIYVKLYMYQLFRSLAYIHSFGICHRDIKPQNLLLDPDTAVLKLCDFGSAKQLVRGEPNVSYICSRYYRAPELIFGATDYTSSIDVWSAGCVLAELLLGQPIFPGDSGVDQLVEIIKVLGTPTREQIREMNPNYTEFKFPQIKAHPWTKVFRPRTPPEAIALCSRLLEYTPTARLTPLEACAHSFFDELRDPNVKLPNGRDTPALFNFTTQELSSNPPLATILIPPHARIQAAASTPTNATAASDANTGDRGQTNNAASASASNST

`O=C1c2ccccc2-c2c1oc1ccccc1c2=O`: the Activity came out at 98% in test [1]; 73% in test [2]; 53% in [3]; 71% in test [4]; 90% in test [5]; 78% in [6]. Besides, the Activity in test [7] came out at 92%; in test [8], 100%; in test [9], 87%; in test [10], 90%; in [11] it was 51%; in test [12], 77%. Besides, the Activity in [13] came to 38%; in [14], 64%; in test [15], 74%; in [16] it was 82%; in test [17] it was 92%; in test [18], 93%. The Activity in test [19] amounted to 82%; in test [20], 92%; in [21], 70%; in test [22] it was 83%; in test [23], 73%; in test [24] it was 44%.
